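Grown in 96-well plates, cells were treated for 48 hours with each compound at five concentrations. Insufficient inhibition: endpoint recorded as highest concentration tested. TGI: concentration producing complete growth inhibition.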
Assays:
Assay in all cases: inhibition of tumour cell growth, NCI panel, 48 h
UO-31 renal = system: UO-31 renal
SF-539 CNS = system: SF-539 CNS
786-0 renal = system: 786-0 renal
COLO 205 colon = system: COLO 205 colon
SK-MEL-5 melanoma = system: SK-MEL-5 melanoma
EKVX NSCLC = system: EKVX NSCLC
KM20L2 colon = system: KM20L2 colon
OVCAR-8 ovarian = system: OVCAR-8 ovarian
SW-620 colon = system: SW-620 colon
M14 melanoma = system: M14 melanoma
HCT-116 colon = system: HCT-116 colon
HOP-18 NSCLC = system: HOP-18 NSCLC
MOLT-4 leukemia = system: MOLT-4 leukemia
NCI-H23 lung = system: NCI-H23 lung
MALME-3M melanoma = system: MALME-3M melanoma
OVCAR-3 ovarian = system: OVCAR-3 ovarian
HCC-2998 colon = system: HCC-2998 colon
DMS 114 small cell lung = system: DMS 114 small cell lung
LXFL 529 NSCLC = system: LXFL 529 NSCLC
IGROV1 ovarian = system: IGROV1 ovarian
DMS 273 small cell lung = system: DMS 273 small cell lung
KM12 colon = system: KM12 colon
SNB-19 CNS = system: SNB-19 CNS
ACHN renal = system: ACHN renal
A498 renal = system: A498 renal
SF-268 CNS = system: SF-268 CNS
M19-MEL melanoma = system: M19-MEL melanoma
CAKI-1 renal = system: CAKI-1 renal
SN12C renal = system: SN12C renal
SF-295 CNS = system: SF-295 CNS
SK-MEL-28 melanoma = system: SK-MEL-28 melanoma
NCI-H460 lung = system: NCI-H460 lung
A549 NSCLC = system: A549 NSCLC
CCRF-CEM leukemia = system: CCRF-CEM leukemia
RPMI-8226 leukemia = system: RPMI-8226 leukemia
UACC-62 melanoma = system: UACC-62 melanoma
SR leukemia = system: SR leukemia
K-562 leukemia = system: K-562 leukemia
DLD-1 colon = system: DLD-1 colon
NCI-H226 lung = system: NCI-H226 lung
HOP-62 NSCLC = system: HOP-62 NSCLC
UACC-257 melanoma = system: UACC-257 melanoma
LOX IMVI melanoma = system: LOX IMVI melanoma
NCI-H522 lung = system: NCI-H522 lung
OVCAR-4 ovarian = system: OVCAR-4 ovarian
SK-OV-3 ovarian = system: SK-OV-3 ovarian
U251 CNS = system: U251 CNS
HL-60(TB) leukemia = system: HL-60(TB) leukemia
HCT-15 colon = system: HCT-15 colon
HOP-92 NSCLC = system: HOP-92 NSCLC
RXF 393 renal = system: RXF 393 renal
TK-10 renal = system: TK-10 renal
SNB-78 CNS = system: SNB-78 CNS
SK-MEL-2 melanoma = system: SK-MEL-2 melanoma
OVCAR-5 ovarian = system: OVCAR-5 ovarian
SNB-75 CNS = system: SNB-75 CNS

Structure (SMILES): COc1ccc(CC#N)c(OCc2ccccc2)c1
- TGI (UO-31 renal): > 100 µM
- TGI (SF-539 CNS): > 100 µM
- TGI (786-0 renal): > 100 µM
- TGI (COLO 205 colon): > 100 µM
- TGI (SK-MEL-5 melanoma): 50.6 µM
- TGI (EKVX NSCLC): > 100 µM
- TGI (KM20L2 colon): > 100 µM
- TGI (OVCAR-8 ovarian): > 100 µM
- TGI (SW-620 colon): > 100 µM
- TGI (M14 melanoma): > 100 µM
- TGI (HCT-116 colon): > 100 µM
- TGI (HOP-18 NSCLC): 79.3 µM
- TGI (MOLT-4 leukemia): > 100 µM
- TGI (NCI-H23 lung): > 100 µM
- TGI (MALME-3M melanoma): 79 µM
- TGI (OVCAR-3 ovarian): > 100 µM
- TGI (HCC-2998 colon): > 100 µM
- TGI (DMS 114 small cell lung): > 100 µM
- TGI (LXFL 529 NSCLC): 67 µM
- TGI (IGROV1 ovarian): > 100 µM
- TGI (DMS 273 small cell lung): > 100 µM
- TGI (KM12 colon): > 100 µM
- TGI (SNB-19 CNS): > 100 µM
- TGI (ACHN renal): > 100 µM
- TGI (A498 renal): 59.4 µM
- TGI (SF-268 CNS): > 100 µM
- TGI (M19-MEL melanoma): > 100 µM
- TGI (CAKI-1 renal): > 100 µM
- TGI (SN12C renal): > 100 µM
- TGI (SF-295 CNS): > 100 µM
- TGI (SK-MEL-28 melanoma): 84.6 µM
- TGI (NCI-H460 lung): > 100 µM
- TGI (A549 NSCLC): > 100 µM
- TGI (CCRF-CEM leukemia): > 100 µM
- TGI (RPMI-8226 leukemia): > 100 µM
- TGI (UACC-62 melanoma): > 100 µM
- TGI (SR leukemia): > 100 µM
- TGI (K-562 leukemia): > 100 µM
- TGI (DLD-1 colon): 85 µM
- TGI (NCI-H226 lung): 66 µM
- TGI (HOP-62 NSCLC): > 100 µM
- TGI (UACC-257 melanoma): > 100 µM
- TGI (LOX IMVI melanoma): > 100 µM
- TGI (NCI-H522 lung): > 100 µM
- TGI (OVCAR-4 ovarian): > 100 µM

Structure (SMILES): Cc1ccc(O)c(N=Nc2ccc(S(=O)(=O)O)cc2)n1
- TGI (UO-31 renal): > 100 µM
- TGI (SF-539 CNS): > 100 µM
- TGI (786-0 renal): > 100 µM
- TGI (COLO 205 colon): > 100 µM
- TGI (SK-OV-3 ovarian): > 100 µM
- TGI (SK-MEL-5 melanoma): > 100 µM
- TGI (EKVX NSCLC): 47.9 µM
- TGI (KM20L2 colon): > 100 µM
- TGI (OVCAR-8 ovarian): > 100 µM
- TGI (SW-620 colon): > 100 µM
- TGI (U251 CNS): > 100 µM
- TGI (M14 melanoma): > 100 µM
- TGI (HCT-116 colon): > 100 µM
- TGI (HOP-18 NSCLC): > 100 µM
- TGI (MOLT-4 leukemia): > 100 µM
- TGI (NCI-H23 lung): > 100 µM
- TGI (DMS 114 small cell lung): > 100 µM
- TGI (LXFL 529 NSCLC): > 100 µM
- TGI (IGROV1 ovarian): > 100 µM
- TGI (DMS 273 small cell lung): > 100 µM
- TGI (ACHN renal): > 100 µM
- TGI (A498 renal): > 100 µM
- TGI (SF-268 CNS): > 100 µM
- TGI (M19-MEL melanoma): > 100 µM
- TGI (CAKI-1 renal): > 100 µM
- TGI (HL-60(TB) leukemia): > 100 µM
- TGI (SN12C renal): > 100 µM
- TGI (HCT-15 colon): > 100 µM
- TGI (SF-295 CNS): > 100 µM
- TGI (SK-MEL-28 melanoma): > 100 µM
- TGI (NCI-H460 lung): > 100 µM
- TGI (A549 NSCLC): > 100 µM
- TGI (HOP-92 NSCLC): > 100 µM
- TGI (CCRF-CEM leukemia): > 100 µM
- TGI (RPMI-8226 leukemia): > 100 µM
- TGI (UACC-62 melanoma): > 100 µM
- TGI (RXF 393 renal): > 100 µM
- TGI (K-562 leukemia): > 100 µM
- TGI (TK-10 renal): > 100 µM
- TGI (DLD-1 colon): > 100 µM
- TGI (LOX IMVI melanoma): > 100 µM
- TGI (NCI-H522 lung): > 100 µM

Structure (SMILES): COc1ccc(/C=C/C(=O)c2sc(NC(=S)NC(=O)c3ccccc3F)nc2C)cc1OC
- TGI (UO-31 renal): > 100 µM
- TGI (SF-539 CNS): > 100 µM
- TGI (786-0 renal): > 100 µM
- TGI (COLO 205 colon): > 100 µM
- TGI (SK-OV-3 ovarian): > 100 µM
- TGI (SK-MEL-5 melanoma): > 100 µM
- TGI (EKVX NSCLC): > 100 µM
- TGI (KM20L2 colon): > 100 µM
- TGI (OVCAR-8 ovarian): > 100 µM
- TGI (SW-620 colon): > 100 µM
- TGI (U251 CNS): > 100 µM
- TGI (SNB-78 CNS): > 100 µM
- TGI (HOP-18 NSCLC): > 100 µM
- TGI (MOLT-4 leukemia): > 100 µM
- TGI (NCI-H23 lung): > 100 µM
- TGI (MALME-3M melanoma): > 100 µM
- TGI (OVCAR-3 ovarian): > 100 µM
- TGI (HCC-2998 colon): > 100 µM
- TGI (DMS 114 small cell lung): > 100 µM
- TGI (IGROV1 ovarian): > 100 µM
- TGI (DMS 273 small cell lung): > 100 µM
- TGI (KM12 colon): > 100 µM
- TGI (SNB-19 CNS): > 100 µM
- TGI (ACHN renal): > 100 µM
- TGI (A498 renal): > 100 µM
- TGI (SF-268 CNS): > 100 µM
- TGI (M19-MEL melanoma): > 100 µM
- TGI (CAKI-1 renal): > 100 µM
- TGI (HL-60(TB) leukemia): > 100 µM
- TGI (SN12C renal): > 100 µM
- TGI (HCT-15 colon): > 100 µM
- TGI (SF-295 CNS): > 100 µM
- TGI (SK-MEL-28 melanoma): > 100 µM
- TGI (NCI-H460 lung): > 100 µM
- TGI (A549 NSCLC): > 100 µM
- TGI (HOP-92 NSCLC): > 100 µM
- TGI (CCRF-CEM leukemia): > 100 µM
- TGI (SK-MEL-2 melanoma): > 100 µM
- TGI (RPMI-8226 leukemia): > 100 µM
- TGI (UACC-62 melanoma): > 100 µM
- TGI (OVCAR-5 ovarian): > 100 µM
- TGI (RXF 393 renal): > 100 µM
- TGI (K-562 leukemia): > 100 µM
- TGI (SNB-75 CNS): > 100 µM
- TGI (TK-10 renal): > 100 µM
- TGI (DLD-1 colon): > 100 µM
- TGI (HOP-62 NSCLC): > 100 µM
- TGI (LOX IMVI melanoma): > 100 µM
- TGI (NCI-H522 lung): 63.9 µM

From PubChem BioAssay (NCI)
